Holding throughout (format): functional, cell-based
The subject of assay [1] is HCT-116. In words: Antiproliferative activity against human HCT-116 cells assessed as reduction in cell viability measured after 72 hrs by MTT assay. Particulars: HCT-116, 72 h. Background: Tetrazolium assays rely on reduction of a dye to a coloured formazan, in cell work by metabolically active cells.
Assay [2] deals with SK-BR-3. In words: Antiproliferative activity against human SK-BR-3 cells assessed as reduction in cell viability measured after 72 hrs by MTT assay. Particulars: SK-BR-3, 72 h.
In assay [3] the test system is HepG2. In words: Antiproliferative activity against human HepG2 cells assessed as reduction in cell viability measured after 72 hrs by MTT assay. Particulars: HepG2, 72 h.
The test system of assay [4] is J82. In words: Antiproliferative activity against human J82 cells assessed as reduction in cell viability measured after 72 hrs by MTT assay. Particulars: J82, 72 h.

Broadly, the IC50 is the concentration that gives 50% inhibition. With `COc1c(/C=C/[C@@](C)(O)CO)ccc2c1C(=O)OCc1cc(C)cc(O)c1O2`, the IC50 in assay [1] is 79.3 µM; in assay [2] it was over 100 µM; in assay [3], 70.1 µM; in assay [4], over 100 µM.

As for `COc1c([C@H]2OC[C@@](C)(O)[C@H]2O)ccc2c1C(=O)OCc1cc(C)cc(O)c1O2`, the IC50 in assay [1] was 47.1 µM; in assay [2], over 100 µM; in assay [3], 80.1 µM; in assay [4] it was over 100 µM.

For the compound `C=C1CO[C@@H](c2ccc3c(c2OC)C(=O)OCc2cc(C)cc(O)c2O3)[C@@H]1O`, the IC50 in assay [1] was 20.7 µM; in assay [2], over 100 µM; in assay [3] it was 21.6 µM; in assay [4], over 100 µM.

In the case of `C=C1COC(c2ccc3c(c2OC)C(=O)OCc2cc(C)cc(O)c2O3)C1O` (racemic), the IC50 in assay [1] was 45.6 µM; in assay [2], 29.1 µM; in assay [3], 16.8 µM; in assay [4], over 100 µM.

With `C=C1CO[C@H](c2ccc3c(c2OC)C(=O)OCc2cc(C)cc(O)c2O3)[C@H]1O`, the IC50 in assay [1] is 57.1 µM; in assay [2] it was 86.5 µM; in assay [3], 30.1 µM; in assay [4], over 100 µM.

For the compound `C=C(C)[C@H](C)[C@H](O)c1ccc2c(c1OC)C(=O)OCc1cc(C)cc(O)c1O2`, the IC50 in assay [1] is 22.4 µM; in assay [2], 43.8 µM; in assay [3], 12.4 µM; in assay [4], 62.4 µM.

For `COc1c([C@@H]2OC[C@@](C)(O)[C@H]2O)ccc2c1C(=O)OCc1cc(C)cc(O)c1O2`, the IC50 in assay [1] is 74.3 µM; in assay [2], 88.5 µM; in assay [3], 99.7 µM; in assay [4], over 100 µM.

For the origin of these results see ChEMBL document CHEMBL5143561, “Neopestolides A-D, Diphenyl Ether Derivatives from the Plant Endophytic Fungus Neopestalotiopsis sp” (J Nat Prod, 2022).
